According to patent publication US20260297542A1, “HERBICIDE RESISTANT PLANTS” (SYNGENTA CROP PROTECTION AG, priority 2023, published 2026):
Substitutions are numbered along the chain they refer to. Like-named read-outs stand apart in the source and are kept apart here.

How the values were obtained:
[1] = target: T1, His-TEV-AtPPO1 ΔcTP V002 (SEQ ID NO: 373) (Arabidopsis thaliana, UniProt P55826, L479M/S305L/Y426V); assay: PPO fluorescence IC50 assay, partially purified enzyme; type: biochemical
T1 construct: with cTPs removed; made in house; host or cells: E. coli BL21 (DE3), His GraviTrap, partially purified
T1 sequence (P55826 with tags, fused parts or gaps S305L/Y426V/L479M): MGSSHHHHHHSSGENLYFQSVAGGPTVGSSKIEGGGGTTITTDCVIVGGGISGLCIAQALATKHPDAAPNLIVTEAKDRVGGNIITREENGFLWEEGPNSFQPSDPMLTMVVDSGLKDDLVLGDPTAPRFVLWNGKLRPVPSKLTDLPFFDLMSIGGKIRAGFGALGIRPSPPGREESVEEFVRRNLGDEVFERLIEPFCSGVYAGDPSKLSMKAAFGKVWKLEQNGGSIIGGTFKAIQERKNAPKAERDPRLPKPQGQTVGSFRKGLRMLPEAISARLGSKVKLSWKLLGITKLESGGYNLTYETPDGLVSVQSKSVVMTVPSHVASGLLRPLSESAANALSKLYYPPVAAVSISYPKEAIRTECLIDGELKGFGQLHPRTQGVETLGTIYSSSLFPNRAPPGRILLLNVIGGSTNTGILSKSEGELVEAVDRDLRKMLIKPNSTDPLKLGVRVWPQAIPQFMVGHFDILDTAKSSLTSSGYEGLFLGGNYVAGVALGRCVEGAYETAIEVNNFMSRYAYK
Source text: (§1) A pET24 plasmid containing a DNA sequence encoding variants of AtPPO1 derived from Arabidopsis thaliana with cTPs removed and both a 6×His tag and TEV protease cleavage tag added at the N-terminus, codon-optimised for expression in E. coli, and under control of a T7 promoter, was synthesised by Twist Bioscience. The following variants were synthesised: WT AtPPO1 (SEQ ID NO: 370), AtPPO1 L479M (SEQ ID NO: 371), AtPPO1 L479N (SEQ ID NO: 372), AtPPO1 S305L Y426V (SEQ ID NO: 374) and AtPPO1 S305L Y426V L479M (SEQ ID NO: 373). This plasmid was expressed in E. coli BL21 (DE3) with 50 μg/mL kanamycin selection. 10 mL of overnight cultures grown at 37° C. were used to inoculate 1 L AIM (AIM-Terrific Broth Base including Trace elements, Formedium) in 2 L shake flasks. Cultures were grown at 37° C., 200 rpm for 3 hours and then overnight at 26° C. Cells were harvested centrifugation. 5-15 g of cell pellet was lysed in and resuspended in ratio of 1:1.5 in lysis buffer (20 mM Tris pH8, 500 mM sodium chloride, 10% glycerol, 1× complete Protease EDTA-free Inhibitor Tablet (Roche), 10 mM imidazole). The resuspension was sonicated at 75% using 10 cycles of 30 seconds, 40 seconds off. After sonication Triton X-100 was added to the lysates at a final concentration of 0.5%. The lysates were centrifuged at 20,000 rpm for 25 min at 4° C. Cleared lysates were loaded on His GraviTrap (Cytiva) columns, washed with 20 mL of lysis buffer and eluted in elution buffer (20 mM Tris pH8, 500 mM sodium chloride, 10% glycerol, 200 mM imidazole, 0.03% (v/v) Triton X-100). The eluate was desalted on a PD10 column and 2.5-3.2 mL was collected. Protein concentration was measured and calculated using the absorbance at 280 nm. Extracts were diluted 1 in 4 and 10 uL was analysed by SDS PAGE.
(§2) Partially purified Protoporphyrinogen Oxidase enzymes were assayed for activity using fluorescence adapted from the method of Shepherd & Dailey (Anal Biochem. 2005 344(1) 115-121). The assay was performed in black 384 well plates with a clear bottom and the total volume of the reaction mixture was 91 ul. The final assay mixture contained 100 mM K2HPO4 pH7.2, 1 mM Na2EDTA, 5 mM DTT, 20% glycerol (v/v), 0.05% Tween 20 (v/v), 1.1% DMSO (v/v), 1 uM protoporphyrinogen IX and 1.5 nM enzyme. Compounds were dissolved in DMSO at 1 mM and a 4-fold serial dilution carried out to give 8 rates. 1 ul was added to the assay mixture. This gave final compound concentrations of 11, 2.7, 0.69, 0.17, 0.04, 0.01, 0.002, 0.0007 uM. Enzyme and inhibitor were preincubated for 5 minutes prior to starting the reaction with the addition of the substrate. […] IC50s were calculated using GraphPad Prism 7.05 nonlinear regression (Table 6). Each compound was tested in duplicate.

[2] = target: T2, His-TEV-AtPP01 ΔcTP (SEQ ID NO: 370) (Arabidopsis thaliana, UniProt P55826); assay: as above; type: biochemical
T2 construct: with cTPs removed; made in house; host or cells: E. coli BL21 (DE3), His GraviTrap, partially purified
T2 sequence (P55826 with tags, fused parts or gaps): T1 sequence (P55826 with tags, fused parts or gaps S305L/Y426V/L479M) with L290S, V411Y, M464L
Source text: as §1, §2

[3] = role: inhibitor, 1 uM protoporphyrinogen IX, <1.0 is below detection limit of assay

Structure (SMILES) | IC50 [1] [nM] | IC50 [2] [nM] | IC50 [1, 3] [nM] | IC50 [2, 3] [nM]
CC(C)Oc1cc(-n2nc(C(C)(C)C)oc2=O)c(Cl)cc1Cl [Oxadiazaon] | 5620 | 19 |  | 
C=CCOC(=O)C(C)(C)OC(=O)c1cc(-n2c(=O)cc(C(F)(F)F)n(C)c2=O)ccc1Cl [Butafenacil, butafenacil] | 12.5 | 0.6 |  | 
CCOC(=O)[C@]1(C)CC(c2cc(-n3c(=O)n(C)c(=S)n(C)c3=O)c(F)cc2Cl)=NO1 [Herbicide D, ethyl (5S)-3-[2-chloro-5-(3,5-dimethyl-2,6-dioxo-4-thioxo-1,3,5-triazinan-1-yl)-4-fluoro-phenyl]-5-methyl-4H-isoxazole-5-carboxylate] | 335 |  |  | 
C#CCOc1cc(-n2nc3n(c2=O)CCCC3)c(Cl)cc1Cl [Azafenadin] | 149 | 0.8 |  | 
CCOC(=O)C1(C)CC(c2cc(-n3c(=O)cc(C(F)(F)F)n(C)c3=O)c(F)cc2Cl)=NO1 (stereo not shown) [Herbicide C, 3-(2-chloro-4-fluoro-5-(3-methyl-2,6-dioxo-4-trifluoromethyl-3,6-dihydropyrimidin-1(2H)-yl)phenyl)-5-methyl-4,5-dihydroisoxazole-5-carboxylic acid ethyl ester] | 121 | 0.7 |  | 
COC(=O)C(C)ON=Cc1cc(-n2c(=O)cc(C(F)(F)F)n(C)c2=O)c(F)cc1Cl (stereo not shown) [Flufenoximacil, flufenoximacil] |  |  | 863 | 0.6
CCOC(=O)COc1ncccc1Oc1cc(-n2c(=O)cc(C(F)(F)F)n(C)c2=O)c(F)cc1Cl [Herbicide A, epyrifenacil] | 447 | 0.7 |  | 
C#CCN1C(=O)C(F)(F)Oc2cc(F)c(-n3c(=O)n(C)c(=S)n(C)c3=O)cc21 [Herbicide B, trifludimoxazin] | 2.1 | 0.7 |  | 
CCOC(=O)COc1cc(-c2nn(C)c(OC(F)F)c2Cl)c(F)cc1Cl [Pyraflufen-ethyl, pyraflufen-ethyl] | 24.2 | 0.6 |  | 
CS(=O)(=O)NC(=O)c1cc(Oc2ccc(C(F)(F)F)cc2Cl)ccc1[N+](=O)[O-] [Fomesafen, fomesafen] | 0.5 | 1.8 |  | 
CC(C)N(C)S(=O)(=O)NC(=O)c1cc(-n2c(=O)cc(C(F)(F)F)n(C)c2=O)c(F)cc1Cl [Herbicide E, saflufenacil] | 998 | 2.1 |  | 
C#CCN(C)c1c(C#N)cnn1-c1nn2c(c1Cl)CCCC2 [Pyraclonil] | 5560 | 2.5 |  | 
C#CCN1C(=O)COc2cc(F)c(N3C(=O)C4=C(CCCC4)C3=O)cc21 [Flumioxazin, flumioxazin] | 187 | 0.8 |  | 
